{
  "source": "PubChem BioAssay AID1259409",
  "about": "(Chemical Carcinogenesis Research Information System (CCRIS), 2018)",
  "origin": "cited, not measured here",
  "tested_on": "rodent chemically induced tumor inhibition, incidence and multiplicity",
  "experiment": "CCRIS tumor inhibitor studies",
  "settings": "Route [Inhibitor]: ORAL, Species: RAT, Strain/Sex: SPRAGUE-DAWLEY/FEMALE",
  "data": [
    {"smiles": "COc1ccc(C[C@H]2COC(=O)[C@@H]2Cc2ccc(O[C@@H]3O[C@H](CO)[C@@H](O)[C@H](O)[C@H]3O)c(OC)c2)cc1OC", "values": [
      {"measurement": "tumour outcome (control, treated, inhibition, significance)", "setting": "Carcinogen: 2-AMINO-1-METHYL-6-PHENYL-1H-IMIDAZO[4,5-B]PYRID INE, 105650-23-5, Dose [Inhibitor]: 0, 0.02% IN THE DIET FOR 8 WK BEGINNING 3 D POST LAST CARCINOGEN DOSE (STUDY DURATION: 48 WK), Target Tissue: Type of Lesion: MAMMARY GLAND: ADENOCARCINOMA, Dose [Carcinogen]: 100 MG/KG BW 1/WK FOR 8 WK BEGINNING AT 6 WK OF AGE, Promoter: NONE USED", "value": "12/20 (60%), 10/19 (53%), 12%, not significant"},
      {"measurement": "tumour outcome (control, treated, inhibition, significance)", "setting": "Carcinogen: 2-AMINO-1-METHYL-6-PHENYL-1H-IMIDAZO[4,5-B]PYRID INE, 105650-23-5, Dose [Inhibitor]: 0, 0.02% IN THE DIET FOR 8 WK BEGINNING 3 D POST LAST CARCINOGEN DOSE (STUDY DURATION: 48 WK), Target Tissue: Type of Lesion: MAMMARY GLAND: FIBROADENOMA, Dose [Carcinogen]: 100 MG/KG BW 1/WK FOR 8 WK BEGINNING AT 6 WK OF AGE, Promoter: NONE USED", "value": "2/20 (10%), 2/19 (11%), -10%, not significant"},
      {"measurement": "tumour outcome (control, treated, inhibition, significance)", "setting": "Carcinogen: 2-AMINO-1-METHYL-6-PHENYL-1H-IMIDAZO[4,5-B]PYRID INE, 105650-23-5, Dose [Inhibitor]: 0, 0.02% IN THE DIET FOR 8 WK BEGINNING 3 D PRIOR TO FIRST CARCINOGEN DOSE (STUDY DURATION: 48 WK), Target Tissue: Type of Lesion: MAMMARY GLAND: ADENOCARCINOMA, Dose [Carcinogen]: 100 MG/KG BW 1/WK FOR 8 WK CONCURRENT WITH INHIBITOR, Promoter: NONE USED", "value": "12/20 (60%), 11/20 (55%), 8%, not significant"},
      {"measurement": "tumour outcome (control, treated, inhibition, significance)", "setting": "Carcinogen: 2-AMINO-1-METHYL-6-PHENYL-1H-IMIDAZO[4,5-B]PYRID INE, 105650-23-5, Dose [Inhibitor]: 0, 0.02% IN THE DIET FOR 8 WK BEGINNING 3 D PRIOR TO FIRST CARCINOGEN DOSE (STUDY DURATION: 48 WK), Target Tissue: Type of Lesion: MAMMARY GLAND: FIBROADENOMA, Dose [Carcinogen]: 100 MG/KG BW 1/WK FOR 8 WK CONCURRENT WITH INHIBITOR, Promoter: NONE USED", "value": "2/20 (10%), 3/20 (15%), -50%, not significant"},
      {"measurement": "tumour outcome (control, treated, inhibition, significance)", "setting": "Carcinogen: 2-AMINO-1-METHYL-6-PHENYL-1H-IMIDAZO[4,5-B]PYRID INE, 105650-23-5, Dose [Inhibitor]: 0, 0.2% IN THE DIET FOR 8 WK BEGINNING 3 D POST LAST CARCINOGEN DOSE (STUDY DURATION: 48 WK), Target Tissue: Type of Lesion: MAMMARY GLAND: ADENOCARCINOMA, Dose [Carcinogen]: 100 MG/KG BW 1/WK FOR 8 WK BEGINNING AT 6 WK OF AGE, Promoter: NONE USED", "value": "12/20 (60%), 11/20 (55%), 8%, not significant"},
      {"measurement": "tumour outcome (control, treated, inhibition, significance)", "setting": "Carcinogen: 2-AMINO-1-METHYL-6-PHENYL-1H-IMIDAZO[4,5-B]PYRID INE, 105650-23-5, Dose [Inhibitor]: 0, 0.2% IN THE DIET FOR 8 WK BEGINNING 3 D POST LAST CARCINOGEN DOSE (STUDY DURATION: 48 WK), Target Tissue: Type of Lesion: MAMMARY GLAND: ADENOCARCINOMA, Dose [Carcinogen]: 100 MG/KG BW 1/WK FOR 8 WK CONCURRENT WITH INHIBITOR, Promoter: NONE USED", "value": "12/20 (60%), 13/20 (65%), -8%, not significant"},
      {"measurement": "tumour outcome (control, treated, inhibition, significance)", "setting": "Carcinogen: 2-AMINO-1-METHYL-6-PHENYL-1H-IMIDAZO[4,5-B]PYRID INE, 105650-23-5, Dose [Inhibitor]: 0, 0.2% IN THE DIET FOR 8 WK BEGINNING 3 D PRIOR TO FIRST CARCINOGEN DOSE (STUDY DURATION: 48 WK), Target Tissue: Type of Lesion: MAMMARY GLAND: FIBROADENOMA, Dose [Carcinogen]: 100 MG/KG BW 1/WK FOR 8 WK CONCURRENT WITH INHIBITOR, Promoter: NONE USED", "value": "2/20 (10%), 4/20 (20%), -100%, not significant"},
      {"measurement": "tumour outcome (control, treated, inhibition, significance)", "setting": "Carcinogen: 2-AMINO-1-METHYL-6-PHENYL-1H-IMIDAZO[4,5-B]PYRID INE, Dose [Inhibitor]: 0, 0.2% IN THE DIET FOR 8 WK BEGINNING 3 D POST LAST CARCINOGEN DOSE (STUDY DURATION: 48 WK), Target Tissue: Type of Lesion: MAMMARY GLAND: FIBROADENOMA, Dose [Carcinogen]: 100 MG/KG BW 1/WK FOR 8 WK BEGINNING AT 6 WK OF AGE, Promoter: NONE USED", "value": "2/20 (10%), 2/20 (10%), 0%, not significant"},
      {"measurement": "tumour outcome (control, treated, inhibition, significance)", "setting": "Carcinogen: 2-AMINO-1-METHYL-6-PHENYLIMIDAZO[4,5-B]PYRIDINE [105650-23-5], Dose [Inhibitor]: 0.02% IN DIET FOR 8 WK BEGINNING 3 D PRIOR TO FIRST CARCINOGEN DOSE (STUDY DURATION: 48 WK), Target Tissue: Type of Lesion: MAMMARY GLAND: CARCINOMA, Dose [Carcinogen]: 100 MG/KG BW 1X/WK FOR 8 WK (STUDY DURATION: 48 WK), Promoter: NONE", "value": "12/20 (60%), 11/20 (55%), 8%, not significant"},
      {"measurement": "tumour outcome (control, treated, inhibition, significance)", "setting": "Carcinogen: 2-AMINO-1-METHYL-6-PHENYLIMIDAZO[4,5-B]PYRIDINE [105650-23-5], Dose [Inhibitor]: 0.02% IN DIET FOR 8 WK BEGINNING 3 D PRIOR TO FIRST CARCINOGEN DOSE (STUDY DURATION: 48 WK), Target Tissue: Type of Lesion: MAMMARY GLAND: FIBROADENOMA, Dose [Carcinogen]: 100 MG/KG BW 1X/WK FOR 8 WK (STUDY DURATION: 48 WK), Promoter: NONE", "value": "2/20 (10%), 3/20 (15%), -50%, not significant"},
      {"measurement": "tumour outcome (control, treated, inhibition, significance)", "setting": "Carcinogen: 2-AMINO-1-METHYL-6-PHENYLIMIDAZO[4,5-B]PYRIDINE [105650-23-5], Dose [Inhibitor]: 0.02% IN DIET FOR 40 WK BEGINNING 3 D POST LAST CARCINOGEN DOSE (STUDY DURATION: 48 WK), Target Tissue: Type of Lesion: MAMMARY GLAND: CARCINOMA, Dose [Carcinogen]: 100 MG/KG BW 1X/WK FOR 8 WK (STUDY DURATION: 48 WK), Promoter: NONE", "value": "12/20 (60%), 10/19 (53%), 12%, not significant"},
      {"measurement": "tumour outcome (control, treated, inhibition, significance)", "setting": "Carcinogen: 2-AMINO-1-METHYL-6-PHENYLIMIDAZO[4,5-B]PYRIDINE [105650-23-5], Dose [Inhibitor]: 0.02% IN DIET FOR 40 WK BEGINNING 3 D POST LAST CARCINOGEN DOSE (STUDY DURATION: 48 WK), Target Tissue: Type of Lesion: MAMMARY GLAND: FIBROADENOMA, Dose [Carcinogen]: 100 MG/KG BW 1X FOR 8 WK (STUDY DURATION: 48 WK), Promoter: NONE", "value": "2/20 (10%), 2/19 (11%), -10%, not significant"},
      {"measurement": "tumour outcome (control, treated, inhibition, significance)", "setting": "Carcinogen: 2-AMINO-1-METHYL-6-PHENYLIMIDAZO[4,5-B]PYRIDINE [105650-23-5], Dose [Inhibitor]: 0.2% IN DIET FOR 8 WK BEGINNING 3 D PRIOR TO FIRST CARCINOGEN DOSE (STUDY DURATION: 48 WK), Target Tissue: Type of Lesion: MAMMARY GLAND: CARCINOMA, Dose [Carcinogen]: 100 MG/KG BW 1X/WK FOR 8 WK (STUDY DURATION: 48 WK), Promoter: NONE", "value": "12/20 (60%), 13/20 (65%), -8%, not significant"},
      {"measurement": "tumour outcome (control, treated, inhibition, significance)", "setting": "Carcinogen: 2-AMINO-1-METHYL-6-PHENYLIMIDAZO[4,5-B]PYRIDINE [105650-23-5], Dose [Inhibitor]: 0.2% IN DIET FOR 8 WK BEGINNING 3 D PRIOR TO FIRST CARCINOGEN DOSE (STUDY DURATION: 48 WK), Target Tissue: Type of Lesion: MAMMARY GLAND: FIBROADENOMA, Dose [Carcinogen]: 100 MG/KG BW 1X/WK FOR 8 WK (STUDY DURATION: 48 WK), Promoter: NONE", "value": "2/20 (10%), 4/20 (20%), -100%, not significant"},
      {"measurement": "tumour outcome (control, treated, inhibition, significance)", "setting": "Carcinogen: 2-AMINO-1-METHYL-6-PHENYLIMIDAZO[4,5-B]PYRIDINE [105650-23-5], Dose [Inhibitor]: 0.2% IN DIET FOR 40 WK BEGINNING 3 D POST LAST CARCINOGEN DOSE (STUDY DURATION: 48 WK), Target Tissue: Type of Lesion: MAMMARY GLAND: CARCINOMA, Dose [Carcinogen]: 100 MG/KG BW 1X FOR 8 WK (STUDY DURATION: 48 WK), Promoter: NONE", "value": "12/20 (60%), 11/20 (55%), 8%, not significant"},
      {"measurement": "tumour outcome (control, treated, inhibition, significance)", "setting": "Carcinogen: 2-AMINO-1-METHYL-6-PHENYLIMIDAZO[4,5-B]PYRIDINE [105650-23-5], Dose [Inhibitor]: 0.2% IN DIET FOR 40 WK BEGINNING 3 D POST LAST CARCINOGEN DOSE (STUDY DURATION: 48 WK), Target Tissue: Type of Lesion: MAMMARY GLAND: FIBROADENOMA, Dose [Carcinogen]: 100 MG/KG BW 1X FOR 8 WK (STUDY DURATION: 48 WK), Promoter: NONE", "value": "2/20 (10%), 2/20 (10%), 0%, not significant"}
    ]}
  ]
}
